# Test results taken from PubChem BioAssay (NCI).
#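 Each compound was tested at five concentrations against cells in 96-well plates for 48 hours. Definition used: TGI = concentration required for complete inhibition of growth.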
# Tests used:
# Assay in all cases: growth of human tumour cells (NCI), 48 h
# NCI-H522 lung = test system: NCI-H522 lung
# UO-31 renal = test system: UO-31 renal
# UACC-257 melanoma = test system: UACC-257 melanoma
# T-47D breast = test system: T-47D breast
# PC-3 prostate = test system: PC-3 prostate
# OVCAR-4 ovarian = test system: OVCAR-4 ovarian
# NCI-H23 lung = test system: NCI-H23 lung
# SF-295 CNS = test system: SF-295 CNS
# U251 CNS = test system: U251 CNS
# ACHN renal = test system: ACHN renal
# MDA-MB-435 = test system: MDA-MB-435
# HL-60(TB) leukemia = test system: HL-60(TB) leukemia
# OVCAR-8 ovarian = test system: OVCAR-8 ovarian
# MDA-MB-231 breast = test system: MDA-MB-231 breast
# HT29 colon = test system: HT29 colon
# SNB-75 CNS = test system: SNB-75 CNS
# SK-MEL-28 melanoma = test system: SK-MEL-28 melanoma
# MCF7 breast = test system: MCF7 breast
# HOP-62 NSCLC = test system: HOP-62 NSCLC
# HCT-15 colon = test system: HCT-15 colon
# DU-145 prostate = test system: DU-145 prostate
# RPMI-8226 leukemia = test system: RPMI-8226 leukemia
# NCI-H226 lung = test system: NCI-H226 lung
# TK-10 renal = test system: TK-10 renal
# SK-MEL-5 melanoma = test system: SK-MEL-5 melanoma
# A549 NSCLC = test system: A549 NSCLC
# IGROV1 ovarian = test system: IGROV1 ovarian
# SR leukemia = test system: SR leukemia
# HS 578T breast = test system: HS 578T breast
# HCC-2998 colon = test system: HCC-2998 colon
# M14 melanoma = test system: M14 melanoma
# SK-MEL-2 melanoma = test system: SK-MEL-2 melanoma
# KM12 colon = test system: KM12 colon
# LOX IMVI melanoma = test system: LOX IMVI melanoma
# CCRF-CEM leukemia = test system: CCRF-CEM leukemia
# RXF 393 renal = test system: RXF 393 renal
# SF-268 CNS = test system: SF-268 CNS
# MOLT-4 leukemia = test system: MOLT-4 leukemia
# HCT-116 colon = test system: HCT-116 colon
# OVCAR-5 ovarian = test system: OVCAR-5 ovarian
# CAKI-1 renal = test system: CAKI-1 renal
# COLO 205 colon = test system: COLO 205 colon
# HOP-92 NSCLC = test system: HOP-92 NSCLC
# UACC-62 melanoma = test system: UACC-62 melanoma
# SNB-19 CNS = test system: SNB-19 CNS
# OVCAR-3 ovarian = test system: OVCAR-3 ovarian
# SF-539 CNS = test system: SF-539 CNS
# SW-620 colon = test system: SW-620 colon
# EKVX NSCLC = test system: EKVX NSCLC
# NCI/ADR-RES ovarian = test system: NCI/ADR-RES ovarian
# A498 renal = test system: A498 renal
# K-562 leukemia = test system: K-562 leukemia
# NCI-H460 lung = test system: NCI-H460 lung
# SN12C renal = test system: SN12C renal
# 786-0 renal = test system: 786-0 renal
# MDA-N = test system: MDA-N
# MALME-3M melanoma = test system: MALME-3M melanoma
# SK-OV-3 ovarian = test system: SK-OV-3 ovarian
# BT-549 breast = test system: BT-549 breast
structure (smiles),measurement,setting,value
Cc1cc(-c2nc3cc(F)ccc3s2)ccc1NC(=O)C(C)N (centres undefined),TGI,NCI-H522 lung,7.99 µM
same,TGI,UO-31 renal,7.05 µM
same,TGI,UACC-257 melanoma,8.88 µM
same,TGI,T-47D breast,6.35 µM
same,TGI,PC-3 prostate,8.71 µM
same,TGI,OVCAR-4 ovarian,8.18 µM
same,TGI,NCI-H23 lung,6.24 µM
same,TGI,SF-295 CNS,7.94 µM
same,TGI,U251 CNS,9.42 µM
same,TGI,ACHN renal,7.83 µM
same,TGI,MDA-MB-435,10.5 µM
same,TGI,HL-60(TB) leukemia,1.34 µM
same,TGI,OVCAR-8 ovarian,8.62 µM
same,TGI,MDA-MB-231 breast,7.7 µM
same,TGI,HT29 colon,8.04 µM
same,TGI,SNB-75 CNS,10.6 µM
same,TGI,SK-MEL-28 melanoma,11 µM
same,TGI,MCF7 breast,2.7 µM
same,TGI,HOP-62 NSCLC,8.32 µM
same,TGI,HCT-15 colon,6.67 µM
same,TGI,DU-145 prostate,8.17 µM
same,TGI,RPMI-8226 leukemia,16.9 µM
same,TGI,NCI-H226 lung,> 25 µM
same,TGI,TK-10 renal,2.93 µM
same,TGI,SK-MEL-5 melanoma,13.6 µM
same,TGI,A549 NSCLC,7.72 µM
same,TGI,IGROV1 ovarian,4.76 µM
same,TGI,SR leukemia,5.24 µM
same,TGI,HS 578T breast,10 µM
same,TGI,HCC-2998 colon,3.57 µM
same,TGI,M14 melanoma,9.74 µM
same,TGI,SK-MEL-2 melanoma,7.87 µM
same,TGI,KM12 colon,9.36 µM
same,TGI,LOX IMVI melanoma,10.1 µM
same,TGI,CCRF-CEM leukemia,3.25 µM
same,TGI,RXF 393 renal,8.33 µM
same,TGI,SF-268 CNS,9.5 µM
same,TGI,MOLT-4 leukemia,8.42 µM
same,TGI,HCT-116 colon,6.57 µM
same,TGI,OVCAR-5 ovarian,5.52 µM
same,TGI,CAKI-1 renal,8.64 µM
same,TGI,COLO 205 colon,13.6 µM
same,TGI,HOP-92 NSCLC,9.41 µM
same,TGI,UACC-62 melanoma,7.7 µM
same,TGI,SNB-19 CNS,9.63 µM
same,TGI,OVCAR-3 ovarian,7.32 µM
same,TGI,SF-539 CNS,14.2 µM
same,TGI,SW-620 colon,9.77 µM
same,TGI,EKVX NSCLC,7.03 µM
same,TGI,NCI/ADR-RES ovarian,10.2 µM
same,TGI,A498 renal,7.41 µM
same,TGI,K-562 leukemia,14.5 µM
same,TGI,NCI-H460 lung,5.98 µM
same,TGI,SN12C renal,9.49 µM
same,TGI,786-0 renal,7.2 µM
same,TGI,MDA-N,8.13 µM
same,TGI,MALME-3M melanoma,25 µM
same,TGI,SK-OV-3 ovarian,8.84 µM
same,TGI,BT-549 breast,8.49 µM
